Converted amounts (≈) assume the structure as drawn. Where two headings read alike, the source gives them in different places.

Holding throughout (test): CLSI broth dilution MIC determination
What all share (type): cell-based
In general terms: In broth dilution the organism is exposed to a series of concentrations in liquid medium.

For assay [1], the system named is K. pneumoniae MP-546 Clinical-MDR.
For the next assay, the system named is P. aeruginosa ATCC 27853. The settings on record: P. aeruginosa ATCC 27853 (MP-3).
Assay [2] has as its system P. aeruginosa MP-8 PAO1:mex (mex-oprM-deletion).
Assay [3] relates to S. aureus MP-17 ATCCBAA-977 (BAA 977 iErm). The settings on record: S. aureus MP-17, ATCCBAA-977, iErm. An excerpt: (§1) MIC data was collected for the novel macrolides that this platform has produced against over 21 unique strains of B. subtilis, E. coli, S. aureus, S. pneumoniae, and H. influenzae, including several multidrug-resistant strains, with a special focus on macrolide resistant mechanisms (vide supra). Azithromycin (Azithro) and Solithromycin (Solithro) were included as a control macrolides in many cases. CLSI standard procedures for broth dilution MIC determination were used. […] These genotypes can be constitutive or inducible.

For the next assay, the system named is S. aureus ATCC 29213. The following applies: S. aureus ATCC 29213 (MP-12).
Text: as §1

Assay [4] relates to E. coli MP-532 clinical-cErmB.
Text: as §1

For another assay, the system named is E. coli ATCC 25922.
Text: as §1

Assay [5] has as its system E. coli MP-9 ATCC25922:tolC.
Text: as §1

A further assay concerns S. aureus MRSA: USA300. The following applies: S. aureus MRSA: USA300 (MP-549, msr(a)).
Text: as §1

Assay [6] relates to S. aureus (MRSA) MP-513 ST-228 cErm (Clinical-cErm).
Text: as §1

The test system of another assay is E. coli MP-541 clinical.
Text: as §1

A further assay concerns A. baumannii ATCC 19606. The settings on record: A. baumannii ATCC 19606 (MP-15).
The test system of a further assay is K. pneumoniae ATCC 10031.
The next assay concerns P. aeruginosa MP-7 PAO1.
For assay [7], the system named is A. baumannii MP-576 Clinical-MDR.
For assay [8], the system named is K. pneumoniae MP-548 clinical.
Assay [9] concerns A. baumannii MP-577 Clinical-AZT low.
Setting [10] is: Klebsiella pneumoniae, read-out: MIC.
The mark [11] stands for this setting: Pseudomonas aeruginosa, ATCC27853, read-out: MIC.
Setting [12] is: Staphylococcus aureus, read-out: MIC.
[13] abbreviates: Staphylococcus aureus, ATCC29213, read-out: MIC.
[14] abbreviates: Escherichia coli, ATCC25922, E. coli ATCC 25922 (MP-4), read-out: MIC.
[15] abbreviates: Escherichia coli, MP541CLINICAL, read-out: MIC.
Where [16] appears, read: Acinetobacter baumannii, ATCC19606, read-out: MIC.
The mark [17] stands for this setting: Klebsiella pneumoniae, ATCC10031, K. pneumoniae ATCC 10031 (MP-14), read-out: MIC.
Setting [18] is: Pseudomonas aeruginosa, read-out: MIC.
[19] abbreviates: Acinetobacter baumannii, read-out: MIC.
[20] abbreviates: Klebsiella pneumoniae, MP548CLINICAL, read-out: MIC.

As a reminder, the MIC is the smallest concentration in the dilution series that meets the test's criterion for growth inhibition. Regarding `CC[C@H]1OC(=O)[C@@](C)(F)C(=O)[C@H](C)[C@@H](O[C@@H]2OC(C)CC(N(C)C)C2O)[C@](C)(OC)C[C@@H](C)C(=O)[C@H](C)[C@H]2N(CC#CCn3cc(-c4nccc(N)n4)nn3)C(=O)O[C@]12C` (some centres unmarked) [FSM-22749], the MIC is more than 64 µg/mL in assay [1] (setting [10]); more than 64 µg/mL in the assay with P. aeruginosa ATCC 27853 (setting [11]); 16 µg/mL (≈ 19 µM) in assay [2] (Pseudomonas aeruginosa, PAO1); 2 µg/mL (≈ 2.37 µM) in assay [3] (setting [12]); 2 µg/mL (≈ 2.37 µM) in the assay on S. aureus ATCC 29213 (setting [13]); more than 64 µg/mL in assay [4] (Escherichia coli). The minimum inhibitory concentration (MIC) is 64 µg/mL (≈ 75.9 µM) with E. coli ATCC 25922 (setting [14]); 8 µg/mL (≈ 9.49 µM) in assay [5] (Escherichia coli, ATCC25922); 2 µg/mL (≈ 2.37 µM) with S. aureus MRSA: USA300 (setting [12]); more than 64 µg/mL in assay [6] (setting [12]); 64 µg/mL (≈ 75.9 µM) in the assay with E. coli MP-541 clinical (setting [15]); 32 µg/mL (≈ 38 µM) in the assay on A. baumannii ATCC 19606 (setting [16]). The MIC was 16 µg/mL (≈ 19 µM) with K. pneumoniae ATCC 10031 (setting [17]); more than 64 µg/mL in the assay on P. aeruginosa MP-7 PAO1 (setting [18]); more than 64 µg/mL in assay [7] (setting [19]); more than 64 µg/mL in [8] (setting [20]); more than 64 µg/mL in assay [9] (setting [19]).
On to `CC[C@H]1OC(=O)[C@@](C)(F)C(=O)[C@H](C)[C@@H](O[C@@H]2OC(C)CC(N(C)C)C2O)[C@](C)(OC)C[C@@H](C)C(=O)[C@H](C)[C@H]2N(CC#CCn3cc(-c4ccnc(N)n4)nn3)C(=O)O[C@]12C` (some centres unmarked) [FSM-22748], for which the MIC in assay [1] (setting [10]) is more than 64 µg/mL; in the assay on P. aeruginosa ATCC 27853 (setting [11]), 64 µg/mL (≈ 75.9 µM); in [2] (Pseudomonas aeruginosa, PAO1) it was 16 µg/mL (≈ 19 µM); in assay [3] (setting [12]) it was 0.25 µg/mL (≈ 0.297 µM); with S. aureus ATCC 29213 (setting [13]), 0.25 µg/mL (≈ 0.297 µM); in assay [4] (Escherichia coli) it was more than 64 µg/mL. Moreover, the MIC is 16 µg/mL (≈ 19 µM) in the assay with E. coli ATCC 25922 (setting [14]); 4 µg/mL (≈ 4.75 µM) in assay [5] (Escherichia coli, ATCC25922); 0.25 µg/mL (≈ 0.297 µM) with S. aureus MRSA: USA300 (setting [12]); more than 64 µg/mL in assay [6] (setting [12]); 16 µg/mL (≈ 19 µM) in the assay with E. coli MP-541 clinical (setting [15]); 16 µg/mL (≈ 19 µM) in the assay on A. baumannii ATCC 19606 (setting [16]). The minimal inhibitory concentration (MIC) with K. pneumoniae ATCC 10031 (setting [17]) is 8 µg/mL (≈ 9.49 µM); with P. aeruginosa MP-7 PAO1 (setting [18]), 64 µg/mL (≈ 75.9 µM); in assay [7] (setting [19]) it was more than 64 µg/mL; in assay [8] (setting [20]), 64 µg/mL (≈ 75.9 µM); in assay [9] (setting [19]), 32 µg/mL (≈ 38 µM).
For `CCC1OC(=O)C(C)(F)C(=O)C(C)C(OC2OC(C)CC(N(C)C)C2O)C(C)(OC)CC(C)C(=O)C(C)C2N(CC=C=Cn3cc(-c4nccc(N)n4)nn3)C(=O)OC12C` (centres unmarked) [FSM-22738], the MIC in [1] was more than 64 µg/mL; in the assay with P. aeruginosa ATCC 27853, 64 µg/mL (≈ 75.9 µM); in [2] (P. aeruginosa MP-8, PAO1:mex, mex-oprM-deletion), 8 µg/mL (≈ 9.49 µM); in assay [3], 0.25 µg/mL (≈ 0.297 µM); in the assay with S. aureus ATCC 29213, 0.25 µg/mL (≈ 0.297 µM); in assay [4] (E. coli MP-532, clinical-cErmB), more than 64 µg/mL. Besides, the MIC is 8 µg/mL (≈ 9.49 µM) against E. coli ATCC 25922 (E. coli ATCC 25922 (MP-4)); 1 µg/mL (≈ 1.19 µM) in assay [5] (E. coli MP-9, ATCC25922:tolC); 0.25 µg/mL (≈ 0.297 µM) against S. aureus MRSA: USA300; 32 µg/mL (≈ 38 µM) in assay [6]; 16 µg/mL (≈ 19 µM) in the assay with E. coli MP-541 clinical; 8 µg/mL (≈ 9.49 µM) with A. baumannii ATCC 19606. Also, the minimal inhibitory concentration (MIC) in the assay with K. pneumoniae ATCC 10031 (K. pneumoniae ATCC 10031 (MP-14)) was 4 µg/mL (≈ 4.75 µM); in the assay on P. aeruginosa MP-7 PAO1, 64 µg/mL (≈ 75.9 µM); in assay [7], more than 64 µg/mL; in assay [8] it was 64 µg/mL (≈ 75.9 µM); in assay [9], 32 µg/mL (≈ 38 µM).
`CC[C@H]1OC(=O)[C@H](C)C(=O)[C@H](C)[C@@H](O[C@@H]2OC(C)CC(N(C)C)C2O)[C@](C)(OC)C[C@@H](C)C(=O)[C@H](C)[C@H]2N(NC/C=C/c3ccnc4ccccc34)C(=O)O[C@]12C` (some centres unmarked) [FSM-140135]: the minimal inhibitory concentration (MIC) in [1] (setting [10]) was more than 64 µg/mL; with P. aeruginosa ATCC 27853 (setting [11]) it was more than 64 µg/mL; in assay [2] (Pseudomonas aeruginosa, PAO1), 32 µg/mL (≈ 40.3 µM); in [3] (setting [12]) it was 2 µg/mL (≈ 2.52 µM); in the assay on S. aureus ATCC 29213 (setting [13]), 2 µg/mL (≈ 2.52 µM); in [4] (Escherichia coli), more than 64 µg/mL. The minimum inhibitory concentration (MIC) in the assay on E. coli ATCC 25922 (setting [14]) is more than 64 µg/mL; in assay [5] (Escherichia coli, ATCC25922), 16 µg/mL (≈ 20.1 µM); in the assay on S. aureus MRSA: USA300 (setting [12]), 2 µg/mL (≈ 2.52 µM); in [6] (setting [12]), more than 64 µg/mL; with E. coli MP-541 clinical (setting [15]), more than 64 µg/mL; with A. baumannii ATCC 19606 (setting [16]), more than 64 µg/mL. Also, the minimum inhibitory concentration (MIC) in the assay on K. pneumoniae ATCC 10031 (setting [17]) is 8 µg/mL (≈ 10.1 µM); in the assay with P. aeruginosa MP-7 PAO1 (setting [18]), more than 64 µg/mL; in assay [7] (setting [19]), more than 64 µg/mL; in assay [8] (setting [20]) it was more than 64 µg/mL; in assay [9] (setting [19]), more than 64 µg/mL.

Source of the values: patent US10633407B2, “14-membered ketolides and methods of their preparation and use” (President and Fellows of Harvard College, priority 2014, dated 2020).
